Reference: paper PMC6706930, “A novel oral micellar fenretinide formulation with enhanced bioavailability and antitumour activity against multiple tumours from cancer stem cells” (Journal of Experimental & Clinical Cancer Research : CR, 2019)

Legend:
[1] = Plasma pharmacokinetics, chronic study (150 mg/Kg single vs daily for 2 weeks); type: in vivo, CD1 female mice; conditions: for relative percent amount of metabolite versus 4-HPR in plasma: after single and repeated treatment; for AUC(0-t): plasma, po, 150 mg/kg
Protocol: (§1) The experiments were performed in CD1 female mice, 7 weeks of age, (body weight 25 ± 2 g) obtained from Envigo RMS SrL (Udine, Italy). They were maintained under specific-pathogen-free conditions with constant temperature and humidity, according to institutional guidelines regularly checked by a certified veterinarian. Animal experimentation was conducted in conformance with the following laws, regulations, and policies governing the care and use of laboratory animals: Italian Governing Law (D. l. 26/2014; Authorization n.19/2008-A issued March 6, 2008 by the Ministry of Health). Mario Negri Institutional Regulations and Policies providing internal authorizations for persons conducting animal experiments (Quality Management System Certificate –UNI EN ISO 9001:2008 – Reg. N 86121). The experimental protocol was reviewed by the Mario Negri Institute Ethical Committee and approved by the Italian Ministry of Health (Aut. Min. No 489/2016-Pr).
(§2) The pharmacokinetics of oral Bio-nFeR was investigated in comparison to that of the reference formulation NCI-FeR, after single administration of multiple doses and after chronic administrations, daily for 2 weeks or bi-daily for 1 week. Bio-nFeR was reconstituted at 20 mg/mL fenretinide to allow the administration of 200 mg/Kg fenretinide that corresponded to the highest dose. The doses of 100, 50 and 10 mg/Kg were administered by using serial dilution of the 20 mg/mL solution.
(§3) NCI-FeR prepared, as per the NCI instructions, at 11.6% w:w fenretinide:internal capsule components, was diluted with corn oil to obtain the treatment solutions at the concentrations of 20, 15 and 10 mg/mL, corresponding to the administered doses of 200, 150 and 100 mg/Kg respectively.
(§4) The oral pharmacokinetics of Bio-nFeR were investigated in four independent groups of 24 mice, randomized to receive different treatment with the following fenretinide equivalent doses: 10, 50, 100 and 200 mg/Kg. The drug was administered by oral gavage and after treatment, blood samples were taken at 15 and 30 min and at 1, 2, 4, 8/10, 24 and 48 h and collected in heparinized tubes from the retro-orbital plexus of the mice under isoflurane anesthesia. Mice were then sacrificed by cervical dislocation and liver, kidney and brain were removed and immediately frozen in dry-ice for future determination. To obtain plasma, blood was centrifuged at 4000 rpm for 10 min at 4 °C. To evaluate fenretinide and metabolites excretion, urine and faeces were collected over a 0–24 h and 24–48 h periods. The collection was performed in three mice per group of treatment, individually housed into metabolic cages for urine and faeces collection. All the biological samples were stored at − 20 °C until analysis. To compare the absorption of Bio-nFeR to NCI-FeR and to study the bioavailability, another independent groups of 24 mice were randomized to receive an oral dose of 200 mg/Kg of NCI-FeR. Blood samples were taken at the time reported above. Twenty-four hours fractions of urine and faeces were collected in three mice per group of treatment. Plasma and the other biological specimens were stored at − 20 °C until analysis. Chronic study: the oral pharmacokinetic of Bio-nFeR in comparison with NCI-FeR were also investigated after chronic administrations. Mice were divided in three independent groups, randomized to receive a single treatment of 150 mg/Kg or different repeated treatments of 150 mg/Kg, daily for 2 weeks (12 days on and 2 days off), or 100 mg/Kg bi-daily for 1 week (5 days on 2 days off). Bio-nFeR and NCI-FeR were administered by oral gavage, collecting blood samples at 0.5, 1, 2, 4, 8/10 and 24 h, the day of the single treatment and at 0, 1, 2, 4, 8/10, 24 and 48 h after the last dose of both the chronic treatments. The procedures of blood collection, plasma preparation, sacrifice of mice and storing of samples were as reported in acute study. […]

[2] = Plasma pharmacokinetics, acute study (single oral administration); type: in vivo, CD1 female mice; conditions: for Cmax ±SD / AUC 0-last / HL / Tmax / Cmax / AUC(0-t): plasma analyte; for amount of metabolite in plasma in comparison to 4-HPR: study of multiple doses, after Bio-nFeR administration
Protocol: as §1, §2, §3, §4

[3] = stated as known, no reference given; cited from earlier work
[4] = plasma analyte, oral Bio-nFeR 150 mg/kg daily, 2 week
[5] = plasma analyte, oral Bio-nFeR 150 mg/kg, Day 1
[6] = mice, single oral Bio-nFeR 10 mg/kg, Suppl. Table 2 A
[7] = mice, single oral Bio-nFeR 50 mg/kg, Suppl. Table 2 A
[8] = mice, single oral Bio-nFeR 100 mg/kg, Suppl. Table 2 A
[9] = mice, single oral Bio-nFeR 200 mg/kg, Suppl. Table 2 A
[10] = single oral Bio-nFeR 10 mg/kg, Suppl. Table 2 A
[11] = single oral Bio-nFeR 50 mg/kg, Suppl. Table 2 A
[12] = single oral Bio-nFeR 100 mg/kg, Suppl. Table 2 A
[13] = single oral Bio-nFeR 200 mg/kg, Suppl. Table 2 A
[14] = single oral Bio-nFeR, 4-HPR dose 200mg/Kg, Suppl. Table 2 B
[15] = single oral NCI-nFeR, 4-HPR dose 200mg/Kg, Suppl. Table 2 B
[16] = female, CD1, mouse, plasma analyte, oral Bio-nFeR 150 mg/kg daily, 2 week
[17] = female, CD1, mouse, plasma analyte, oral Bio-nFeR 150 mg/kg, Day 1
[18] = female, CD1, mouse, plasma, po, 200 mg/kg, single oral Bio-nFeR, 4-HPR dose 200mg/Kg, Suppl. Table 2 B
[19] = female, CD1, mouse, plasma, po, 200 mg/kg, single oral NCI-nFeR, 4-HPR dose 200mg/Kg, Suppl. Table 2 B

## CC1=C(/C=C/C(C)=C/C=C/C(C)=C/C(=O)Nc2ccc(O)cc2)C(C)(C)CCC1=O [4-oxo-4-HPR]
[1]
  relative percent amount of metabolite versus 4-HPR in plasma: about 50%
[1]; [4]
  AUC 0-last: 54434.2 ng·h/mL
  Cmax ±SD: 4282.6 ng/mL
  HL: 4.7 h
  Tmax: 4 h
[1]; [5]
  AUC 0-last: 33726.1 ng·h/mL
  Cmax ±SD: 2979.4 ng/mL
  HL: 3.9 h
[2]; [6]
  Cmax ±SD: 505.1 ng/mL
[2]; [7]
  Cmax ±SD: 2389.1 ng/mL
[2]; [8]
  Cmax ±SD: 3109.1 ng/mL
[2]; [9]
  Cmax ±SD: 4071.2 ng/mL
[2]; [10]
  AUC 0-last: 4145.3 ng·h/mL
  HL: 5.2 h
  Tmax: 2 h
[2]; [11]
  AUC 0-last: 24372.6 ng·h/mL
  HL: 5.4 h
  Tmax: 4 h
[2]; [12]
  AUC 0-last: 38500.3 ng·h/mL
  HL: 4.8 h
  Tmax: 4 h
[2]; [13]
  AUC 0-last: 58677.2 ng·h/mL
  HL: 5.3 h
  Tmax: 4 h
[2]; [14]
  AUC 0-last: 58677.2 ng·h/mL
  Cmax ±SD: 4071.2 ng/mL
  HL: 5.3 h
  Tmax: 4 h
[2]; [15]
  AUC 0-last: 39875.4 ng·h/mL
  Cmax ±SD: 3372.3 ng/mL
  HL: 5.4 h
  Tmax: 4 h
[2]
  amount of metabolite in plasma in comparison to 4-HPR: about 50%

## COc1ccc(NC(=O)\C=C(C)/C=C/C=C(C)\C=C\C2=C(C)CCCC2(C)C)cc1 [MPR]
[3]
  activity of the metabolite: inactive
[1]
  relative percent amount of metabolite versus 4-HPR in plasma: ~15%
[1]; [4]
  AUC 0-last: 22086.1 ng·h/mL
  Cmax ±SD: 1147.9 ng/mL
  HL: 11.2 h
  Tmax: 4 h
[1]; [5]
  AUC 0-last: 10435.4 ng·h/mL
  Cmax ±SD: 798.0 ng/mL
  HL: 8.6 h
  Tmax: 4 h
[2]; [6]
  Cmax ±SD: 120.6 ng/mL
[2]; [7]
  Cmax ±SD: 778.9 ng/mL
[2]; [8]
  Cmax ±SD: 1112.6 ng/mL
[2]; [9]
  Cmax ±SD: 1070.5 ng/mL
[2]; [10]
  AUC 0-last: 1750.7 ng·h/mL
  HL: 9.4 h
  Tmax: 4 h
[2]; [11]
  AUC 0-last: 9931.5 ng·h/mL
  HL: 10.3 h
  Tmax: 4 h
[2]; [12]
  AUC 0-last: 15439.7 ng·h/mL
  HL: 8.6 h
  Tmax: 4 h
[2]; [13]
  AUC 0-last: 21449.6 ng·h/mL
  HL: 11.6 h
  Tmax: 4 h
[2]; [14]
  AUC 0-last: 21449.6 ng·h/mL
  Cmax ±SD: 1070.5 ng/mL
  HL: 11.6 h
  Tmax: 4 h
[2]; [15]
  AUC 0-last: 23406.1 ng·h/mL
  Cmax ±SD: 1407.0 ng/mL
  HL: 9.9 h
  Tmax: 4 h
[2]
  amount of metabolite in plasma in comparison to 4-HPR: ~15%

## CC1=C(/C=C/C(C)=C/C=C/C(C)=C/C(=O)Nc2ccc(O)cc2)C(C)(C)CCC1 [4-HPR, 4-hydroxy (phenyl)retinamide, reference compound]
[1]; [16]
  AUC(0-t): 85100 ng·h/mL
  Cmax at 2 weeks: 6810 ng/mL
  Tmax at 2 weeks: 4 h
[1]; [17]
  AUC(0-t): 56900 ng·h/mL
  Cmax: 6350 ng/mL
[1]; female, CD1, mouse, plasma analyte, oral Bio-nFeR 150 mg/kg, Day 1, read-out: Tmax
  Tmax: 20 h
[1]; [4]
  HL: 5.7 h
[1]; [5]
  HL: 5.3 h
[2]; female, CD1, mouse, plasma, po, 10 mg/kg, mice, single oral Bio-nFeR 10 mg/kg, Suppl. Table 2 A
  Cmax: 601 ng/mL
[2]; female, CD1, mouse, plasma, po, 10 mg/kg, single oral Bio-nFeR 10 mg/kg, Suppl. Table 2 A
  AUC(0-t): 6750 ng·h/mL
[2]; female, CD1, mouse, plasma, po, 10 mg/kg, single oral Bio-nFeR 10 mg/kg, Suppl. Table 2 A, read-out: Tmax
  Tmax: 2 h
[2]; female, CD1, mouse, plasma, po, 50 mg/kg, mice, single oral Bio-nFeR 50 mg/kg, Suppl. Table 2 A
  Cmax: 3650 ng/mL
[2]; female, CD1, mouse, plasma, po, 50 mg/kg, single oral Bio-nFeR 50 mg/kg, Suppl. Table 2 A
  AUC(0-t): 39200 ng·h/mL
[2]; female, CD1, mouse, plasma, po, 50 mg/kg, single oral Bio-nFeR 50 mg/kg, Suppl. Table 2 A, read-out: Tmax
  Tmax: 4 h
[2]; female, CD1, mouse, plasma, po, 100 mg/kg, mice, single oral Bio-nFeR 100 mg/kg, Suppl. Table 2 A
  Cmax: 5340 ng/mL
[2]; female, CD1, mouse, plasma, po, 100 mg/kg, single oral Bio-nFeR 100 mg/kg, Suppl. Table 2 A
  AUC(0-t): 66300 ng·h/mL
[2]; female, CD1, mouse, plasma, po, 100 mg/kg, single oral Bio-nFeR 100 mg/kg, Suppl. Table 2 A, read-out: Tmax
  Tmax: 4 h
[2]; female, CD1, mouse, plasma, po, 200 mg/kg, mice, single oral Bio-nFeR 200 mg/kg, Suppl. Table 2 A
  Cmax: 6840 ng/mL
[2]; female, CD1, mouse, plasma, po, 200 mg/kg, single oral Bio-nFeR 200 mg/kg, Suppl. Table 2 A
  AUC(0-t): 113000 ng·h/mL
[2]; female, CD1, mouse, plasma, po, 200 mg/kg, single oral Bio-nFeR 200 mg/kg, Suppl. Table 2 A, read-out: Tmax
  Tmax: 2 h
[2]; [18]
  AUC(0-t): 113000 ng·h/mL
  Cmax: 6840 ng/mL
[2]; female, CD1, mouse, plasma, po, 200 mg/kg, single oral Bio-nFeR, 4-HPR dose 200mg/Kg, Suppl. Table 2 B, read-out: Tmax
  Tmax: 2 h
[2]; [19]
  AUC(0-t): 97900 ng·h/mL
  Cmax: 8460 ng/mL
[2]; female, CD1, mouse, plasma, po, 200 mg/kg, single oral NCI-nFeR, 4-HPR dose 200mg/Kg, Suppl. Table 2 B, read-out: Tmax
  Tmax: 4 h
[2]; female, CD1, mouse, plasma, mice, oral Bio-nFeR, different doses, read-out: elimination half-life (converted)
  half-life: ~7 h
[2]; [10]
  HL: 7.5 h
[2]; [11]
  HL: 7.3 h
[2]; [12]
  HL: 6.5 h
[2]; [13]
  HL: 7.2 h
[2]; [14]
  HL: 7.2 h
[2]; [15]
  HL: 6.7 h
